Among the data in US20250163104A1, “MACROCYCLIC IMMUNOMODULATORS” (priority 2021, published 2025) are IC50 values, retold here.

The target in this assay is T1, human PD-1 / PD-L1-Ig binding on Jurkat cell line over-expressing human PD-1 (Jurkat-PD-1) (Homo sapiens, UniProt Q15116).
T1 construct: expressed in transfected cells; host or cells: Jurkat
Put plainly: Jurkat-PD-1 Cell Binding High-Content Screening Assay (CBA). Type of assay: cell-based. The method in brief:
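Binding of fluorescent PD-L1-Ig (phycoerythrin linked via the Ig tag, 20 nM final) to PD-1-overexpressing Jurkat cells was imaged after a 2 h, 37° C compound pretreatment and 1 hour ligand incubation.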

The mark [1] stands for this setting: Jurkat-PD-1 cells, PE-labeled PD-L1-Ig 20 nM final; read-out: Jurkat HPD1_PDL1 IC50.

Like-named read-outs stand apart in the source and are kept apart here. *1 amine or outer side, *2 acyl side, *3 side chain or, on linkers, in order; H or OH if unused. Where a SMILES comes first, the peptide text is derived from it. Bridges are numbered along the chain shown (N, C = ends). [ ]: non-standard residue; d: D form. The star is where a group is joined. ξ: configuration not given here. Phe(4-COOH) = N[C@@H](Cc1ccc(C(=O)O)cc1)C(=O)O; X5 = O=C([C@H](Cc1ccc2ncccc2c1)N[*:1])[*:2]; Bip = N[C@@H](Cc1ccc(-c2ccccc2)cc1)C(=O)O; Phe(3-Me) = Cc1cccc(C[C@H](N)C(=O)O)c1; Ala(cPent) = N[C@@H](CC1CCCC1)C(=O)O; Val(3-OH) = CC(C)(O)[C@H](N)C(=O)O; 4Pal = N[C@@H](Cc1ccncc1)C(=O)O; Cha = N[C@@H](CC1CCCCC1)C(=O)O; Cit = NC(=O)NCCC[C@H](N)C(=O)O; Ile(3ξ) = CCC(C)[C@H](N)C(=O)O; Thr(3ξ) = CC(O)[C@H](N)C(=O)O; Carboxymethyl = O=C(O)C*; Nle = CCCC[C@H](N)C(=O)O; Orn = NCCC[C@H](N)C(=O)O; Pra = C#CC[C@H](N)C(=O)O; Dab = NCC[C@H](N)C(=O)O; Dap = NC[C@H](N)C(=O)O; Sar = CNCC(=O)O

T1 sequence (Q15116 25-288): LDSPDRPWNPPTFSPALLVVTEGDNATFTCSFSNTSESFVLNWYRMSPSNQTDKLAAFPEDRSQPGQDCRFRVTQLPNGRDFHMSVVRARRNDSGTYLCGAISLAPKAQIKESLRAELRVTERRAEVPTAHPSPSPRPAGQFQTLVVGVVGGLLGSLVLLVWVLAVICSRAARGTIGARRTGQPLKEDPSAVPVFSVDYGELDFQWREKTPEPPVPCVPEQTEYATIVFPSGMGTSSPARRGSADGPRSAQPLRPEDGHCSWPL

For the compound `CC(C)C[C@H]1NC(=O)[C@H](CCCN)NC(=O)[C@H](CN)NC(=O)[C@H](Cc2ccc(-c3ccccc3)cc2)NC(=O)[C@H](C(C)C)NC(=O)[C@H](Cc2c[nH]c3ccccc23)NC(=O)[C@H](CC(=O)O)NC(=O)[C@H](Cc2ccc(O)cc2)NC(=O)[C@H](CC(N)=O)NC(=O)CSC[C@@H](C(=O)N[C@@H](C)C(N)=O)NC(=O)[C@H]([C@@H](C)O)NC(=O)[C@H](C(C)C)NC(=O)[C@H](CC2CCCCC2)NC(=O)[C@H](CCN)NC1=O` [Compound 1380], the IC50 under setting [1] is 0.0168 µM. On the same count and under the same terms, with `CCCC[C@H]1NC(=O)[C@H](CCCN)NC(=O)[C@H](CCC(=O)O)NC(=O)[C@H](Cc2ccc(-c3ccccc3)cc2)NC(=O)[C@H](C(C)C)NC(=O)[C@H](Cc2c[nH]c3ccccc23)NC(=O)[C@H](CC(=O)O)NC(=O)[C@H](Cc2ccc(C(=O)O)cc2)NC(=O)[C@H](Cc2ccncc2)NC(=O)CSC[C@@H](C(=O)N[C@@H](C)C(N)=O)NC(=O)[C@H]([C@@H](C)O)NC(=O)[C@H](C(C)C)NC(=O)[C@H](CC2CCCCC2)NC(=O)[C@H](CCN)NC1=O` [Compound 1450] the figure was 0.0076 µM. Still for that read-out and setting: the figure for `CC(C)C[C@H]1NC(=O)[C@H](CCCN)NC(=O)CNC(=O)[C@H](Cc2ccc(-c3ccccc3)cc2)NC(=O)[C@H](C(C)C)NC(=O)[C@H](Cc2c[nH]c3ccccc23)NC(=O)[C@H](CC(=O)O)NC(=O)[C@H](Cc2ccc(OCC(=O)O)cc2)NC(=O)[C@H](C(C)O)NC(=O)CSC[C@@H](C(=O)N[C@@H](CC(N)=O)C(N)=O)NC(=O)[C@H](CO)NC(=O)[C@H](C(C)C)NC(=O)[C@H](CC2CCCCC2)NC(=O)[C@H](CCN)NC1=O` (stereo partly drawn) [Compound 2566] ({CH2CO}-[Thr(3ξ)]Y(Carboxymethyl)DWV[Bip]G[Orn][dL][Dab][Cha]VSCN-NH2; thioether N-14) is 0.121 µM; for `C#CC[C@H](NC(=O)[C@H](CCN)NC(=O)[C@@H]1CSCC(=O)N[C@@H](CCCN)C(=O)N[C@@H](Cc2ccc(OCC(=O)O)cc2)C(=O)N[C@@H](CC(=O)O)C(=O)N[C@@H](Cc2cccc(C)c2)C(=O)N[C@@H](Cc2ccc(OCC(=O)O)cc2)C(=O)N[C@@H](Cc2ccc(-c3ccccc3)cc2)C(=O)N[C@@H](Cc2ccc(OCC(=O)O)cc2)C(=O)N[C@@H](CCCN)C(=O)N[C@H](CC(C)C)C(=O)N[C@@H](CCN)C(=O)N[C@@H](CC2CCCCC2)C(=O)N[C@@H](C(C)(C)O)C(=O)N[C@@H](CO)C(=O)N1)C(N)=O` [Compound 1853] ({CH2CO}-[Orn]Y(Carboxymethyl)D[Phe(3-Me)]Y(Carboxymethyl)[Bip]Y(Carboxymethyl)[Orn][dL][Dab][Cha][Val(3-OH)]SC[Dab][Pra]-NH2; thioether N-14) it is 0.0069 µM.

As to `CCC(C)[C@@H]1NC(=O)[C@H](Cc2ccc(-c3ccccc3)cc2)NC(=O)[C@H](C(C)C)NC(=O)[C@H](Cc2cccc(C)c2)NC(=O)[C@H](CC(=O)O)NC(=O)[C@H](Cc2cccnc2)NC(=O)[C@H](Cc2ccncc2)NC(=O)CSC[C@@H](C(=O)N[C@@H](C)C(N)=O)NC(=O)[C@H]([C@@H](C)O)NC(=O)[C@H](C(C)C)NC(=O)[C@H](CC2CCCCC2)NC(=O)[C@H](CCN)NC(=O)[C@@H](CC(C)C)NC(=O)[C@H](CCCN)NC1=O` (stereo partly drawn) [Compound 2237], the half-inhibitory concentration (IC50) under setting [1] stood at 0.0228 µM.

For the compound `CC(C)C[C@H]1NC(=O)[C@H](CCCN)NC(=O)[C@H](CN)NC(=O)[C@H](Cc2ccc(-c3ccccc3)cc2)NC(=O)[C@H](C(C)C)NC(=O)[C@H](Cc2c[nH]c3ccccc23)NC(=O)[C@H](CC(=O)O)NC(=O)[C@H](Cc2ccc(C(=O)O)cc2)NC(=O)[C@H](Cc2ccc(OCC(=O)O)cc2)NC(=O)CSC[C@@H](C(=O)N[C@@H](C)C(N)=O)NC(=O)[C@H](CO)NC(=O)[C@H](C(C)C)NC(=O)[C@H](CC2CCCCC2)NC(=O)[C@H](CCN)NC1=O` [Compound 2540] ({CH2CO}-Y(Carboxymethyl)[Phe(4-COOH)]DWV[Bip][Dap][Orn][dL][Dab][Cha]VSCA-NH2; thioether N-14), the half-maximal inhibitory concentration (IC50) under setting [1] was 0.0161 µM. Turning to `CC(C)C[C@H]1NC(=O)[C@H](CCCN)NC(=O)[C@H](CCC(=O)O)NC(=O)[C@H](Cc2ccc(-c3ccccc3)cc2)NC(=O)[C@H](CC2CCCC2)NC(=O)[C@H](Cc2c[nH]c3ccccc23)NC(=O)[C@H](CC(=O)O)NC(=O)[C@H](Cc2ccc(OCC(=O)O)cc2)NC(=O)[C@H](CN)NC(=O)CSC[C@@H](C(=O)N[C@@H](C)C(N)=O)NC(=O)[C@H]([C@@H](C)O)NC(=O)[C@H](C(C)C)NC(=O)[C@H](CC2CCCCC2)NC(=O)[C@H](CCN)NC1=O` [Compound 1715] ({CH2CO}-[Dap]Y(Carboxymethyl)DW[Ala(cPent)][Bip]E[Orn][dL][Dab][Cha]VTCA-NH2; thioether N-14), the IC50 under setting [1] turned out to be 0.0384 µM. The same measure, in the same setting: the figure for `CC(C)C[C@@H]1NC(=O)[C@H](Cc2c[nH]c3ccccc23)NC(=O)[C@H](CC(=O)O)NC(=O)[C@H](Cc2ccc(O)cc2)NC(=O)[C@H](Cc2ccccc2)NC(=O)CSC[C@@H](C(=O)N[C@@H](C)C(N)=O)NC(=O)[C@H](CO)NC(=O)[C@H](C(C)C)NC(=O)[C@H](CC(C)C)NC(=O)[C@H](CC(N)=O)NC(=O)[C@@H](C)NC(=O)[C@@H](CCCCN)NC(=O)[C@H](C(C)C)NC(=O)[C@H](Cc2ccc(-c3ccccc3)cc2)NC1=O` [Compound 2000] ({CH2CO}-FYDWL[Bip]V[dK][dA]NLVSCA-NH2; thioether N-14) is 0.0394 µM.

In the case of `CCC(C)[C@@H]1NC(=O)[C@H](CC2CCCCC2)NC(=O)[C@H](CCN)NC(=O)[C@@H](CC(C)C)NC(=O)[C@H](CCCN)NC(=O)[C@H](C(C)CC)NC(=O)[C@H](Cc2ccc(-c3ccccc3)cc2)NC(=O)[C@H](C(C)CC)NC(=O)[C@H](Cc2c[nH]c3ccccc23)NC(=O)[C@H](CC(=O)O)NC(=O)[C@H](Cc2ccc(OCC(=O)O)cc2)NC(=O)[C@H](C(C)O)NC(=O)CSC[C@@H](C(=O)N(C)CC(N)=O)NC(=O)[C@H](CO)NC1=O` (stereo partly drawn) [Compound 2584] ({CH2CO}-[Thr(3ξ)]Y(Carboxymethyl)DW[Ile(3ξ)][Bip][Ile(3ξ)][Orn][dL][Dab][Cha][Ile(3ξ)]SC[Sar]-NH2; thioether N-14), the half-inhibitory concentration (IC50) (read-out: Jurkat HPD1_PDL1 IC50; Jurkat-PD-1 cells, PE-labeled PD-L1-Ig 20 nM final) came to 0.097 µM. On to `CCCC[C@@H]1NC(=O)[C@H](CC(N)=O)NC(=O)[C@@H](CC(C)C)NC(=O)[C@H](CCCN)NC(=O)[C@H](C(C)C)NC(=O)[C@H](Cc2ccc(-c3ccccc3)cc2)NC(=O)[C@H](CC(C)C)NC(=O)[C@H](Cc2c[nH]c3ccccc23)NC(=O)[C@H](CC(=O)O)NC(=O)[C@H](Cc2ccc(O)cc2)NC(=O)[C@H](Cc2ccccc2)NC(=O)CSC[C@@H](C(=O)NCC(N)=O)NC(=O)[C@H](CO)NC(=O)[C@H](C(C)C)NC1=O` [Compound 1339] ({CH2CO}-FYDWL[Bip]V[Orn][dL]N[Nle]VSCG-NH2; thioether N-14), for which the IC50 under setting [1] was 0.052 µM.

`Cc1cccc(C[C@@H]2NC(=O)[C@H](CC(=O)O)NC(=O)[C@H](Cc3ccc(C(=O)O)cc3)NC(=O)[C@H](Cc3ccc(OCC(=O)O)cc3)NC(=O)CSC[C@@H](C(=O)N[C@@H](C)C(N)=O)NC(=O)[C@H]([C@@H](C)O)NC(=O)[C@H](C(C)C)NC(=O)[C@H](CC(C)C)NC(=O)[C@H](CCN)NC(=O)[C@@H](CC(C)C)NC(=O)[C@H](CCCN)NC(=O)[C@H](CCCNC(N)=O)NC(=O)[C@H](Cc3ccc(-c4ccccc4)cc3)NC(=O)[C@H](C(C)C)NC2=O)c1` [Compound 1251] ({CH2CO}-Y(Carboxymethyl)[Phe(4-COOH)]D[Phe(3-Me)]V[Bip][Cit][Orn][dL][Dab]LVTCA-NH2; thioether N-14): the IC50 under setting [1] came to 0.0079 µM.

Take `CCC(C)[C@@H]1NC(=O)[C@H](Cc2ccc(-c3ccccc3)cc2)NC(=O)[C@H](C(C)C)NC(=O)[C@H](Cc2c[nH]c3ccccc23)NC(=O)[C@H](CC(=O)O)NC(=O)[C@H](Cc2ccc(OCC(=O)O)cc2)NC(=O)[C@H](Cc2ccncc2)NC(=O)CSC[C@@H](C(=O)N[C@@H](C)C(N)=O)NC(=O)[C@H](C(C)O)NC(=O)[C@H](C(C)C)NC(=O)[C@H](CC2CCCCC2)NC(=O)[C@H](CCN)NC(=O)[C@@H](CC(C)C)NC(=O)[C@H](CCCN)NC1=O` (stereo partly drawn) [Compound 2519]: the IC50 under setting [1] turned out to be 0.0065 µM. On the same count and under the same terms, the figure for `CC(C)C[C@@H]1NC(=O)[C@H](Cc2c[nH]c3ccccc23)NC(=O)[C@H](CC(=O)O)NC(=O)[C@H](Cc2ccc(OCC(=O)O)cc2)NC(=O)[C@H](CCN)NC(=O)CSC[C@@H](C(=O)N[C@@H](CC(N)=O)C(N)=O)NC(=O)[C@H](CO)NC(=O)[C@H](C(C)C)NC(=O)[C@H](CC2CCCCC2)NC(=O)[C@H](CCN)NC(=O)[C@@H](CC(C)C)NC(=O)[C@H](CCCN)NC(=O)[C@H](C(C)O)NC(=O)[C@H](Cc2ccc(-c3ccccc3)cc2)NC1=O` (stereo partly drawn) [Compound 2558] ({CH2CO}-[Dab]Y(Carboxymethyl)DWL[Bip][Thr(3ξ)][Orn][dL][Dab][Cha]VSCN-NH2; thioether N-14) is 0.014 µM; for `CC[C@H](C)[C@@H]1NC(=O)[C@H](Cc2ccc(-c3ccccc3)cc2)NC(=O)[C@H](C(C)C)NC(=O)[C@H](Cc2c[nH]c3ccccc23)NC(=O)[C@H](CC(=O)O)NC(=O)[C@H](Cc2ccc(C(=O)O)cc2)NC(=O)[C@H](Cc2ccncc2)NC(=O)CSC[C@@H](C(=O)N[C@@H](C)C(N)=O)NC(=O)[C@H]([C@@H](C)O)NC(=O)[C@H](C(C)C)NC(=O)[C@H](CC(C)C)NC(=O)[C@H](CCN)NC(=O)[C@@H](CC(C)C)NC(=O)[C@H](CCCN)NC1=O` [Compound 1055] ({CH2CO}-[4Pal][Phe(4-COOH)]DWV[Bip]I[Orn][dL][Dab]LVTCA-NH2; thioether N-14) it is 0.0058 µM.

Consider `CC(C)C[C@H]1NC(=O)[C@H](CCCN)NC(=O)[C@H](CCC(=O)O)NC(=O)[C@H](Cc2ccc(-c3ccccc3)cc2)NC(=O)[C@H](C(C)C)NC(=O)[C@H](Cc2c[nH]c3ccccc23)NC(=O)[C@H](CC(=O)O)NC(=O)[C@H](Cc2ccc3ncccc3c2)NC(=O)[C@H](Cc2ccncc2)NC(=O)CSC[C@@H](C(=O)N[C@@H](C)C(N)=O)NC(=O)[C@H]([C@@H](C)O)NC(=O)[C@H](C(C)C)NC(=O)[C@H](CC2CCCCC2)NC(=O)[C@H](CCN)NC1=O` [Compound 2179] ({CH2CO}-[4Pal][X5]DWV[Bip]E[Orn][dL][Dab][Cha]VTCA-NH2; thioether N-14), for which the 50% inhibitory concentration (IC50) under setting [1] is 0.0651 µM.
